tested on: MV4:11 human cancer cell lines; experiment: Cellular viability / anti-proliferative assay, CellTiter-Glo, 5 day protocol; assay type: cell-based; conditions: Homo sapiens, MV4-11, 120 h, MV4:11 cells; 5 day incubation; CellTiter-Glo; mean of at least two replicates; read-out: GI50 on cellular proliferation of MV4:11 human cancer cell lines
Procedure: Cellular Viability of Human Tumor Cell Lines
Anti-proliferative activity using MLL-harboring cell lines. MV-4-11 and K562 cells are grown in IMDM media supplemented with 10% FBS and 1% penicillin/streptomycin, Molm-13 cells are cultured in RPMI-1640 media supplemented with 10% FBS and 1% penicillin/streptomycin. Viability assays are performed by dispensing 200 cells at 7200 cells/mL into each well of an opaque 384-well plate and adding compounds at the indicated concentrations in a final volume, of 32 μL. and a final concentration of DMSO of 0.3% for all samples. A certain range of compound concentrations is made through a series of 2-fold dilutions starting 30 μM at the highest, total 22 dilutions. After a set incubation period, 5 day protocol, the viability of cells in each well is assessed using the CellTiter-Glo assay (Promega), read on a 96 Microplane Luminometer (Cytation 3, BioTek). Serial dilutions of each cell type are performed in all assays to generate standard curves and the final densities of cells are determined within the dynamic range of the instrument. GI50 values are calculated based on XLfit software (IDBS, Guildford, UK) with Sigmoidal Dose-Response Model. Each compound is tested in minimum of two replicates. Data are expressed as mean.

| Structure (SMILES) | GI50 |
| --- | --- |
| CCc1cc(N2CCOCC2)c2nc(C)cc(N3CCc4c(cc(Cn5ccnc5)cc4-c4cn(C)nc4C(F)(F)F)C3=O)c2c1 [Example 145, 7-((1H-Imidazol-1-yl)methyl)-2-(6-ethyl-2-methyl-8-morpholinoquinolin-4-yl)-5-(1-methyl-3-(trifluoromethyl)-1H-pyrazol-4-yl)-3,4-dihydroisoquinolin-1(2H)-one] | 36 nM |
| CCc1cc(C2=CCN(C)CC2)c2nc(C)cc(N3CCc4c(cc(Cn5ccnc5)cc4-c4cn(C)nc4C(F)(F)F)C3=O)c2c1 [Example 147, 7-((1H-imidazol-1-yl)methyl)-2-(6-ethyl-2-methyl-8-(1-methyl-1,2,3,6-tetrahydropyridin-4-yl)quinolin-4-yl)-5-(1-methyl-3-(trifluoromethyl)-1H-pyrazol-4-yl)-3,4-dihydroisoquinolin-1(2H)-one] | 43 nM |
| CCCCNC(=O)c1cc(OC)cc2c(N3CCc4c(cc(Cn5ccnc5)cc4-c4cn(C)nc4C(F)(F)F)C3=O)ccnc12 [Example 48, 4-(7-((1H-Imidazol-1-yl)methyl)-5-(1-methyl-3-(trifluoromethyl)-1H-pyrazol-4-yl)-1-oxo-3,4-dihydroisoquinolin-2(1H)-yl)-N-butyl-6-methoxyquinoline-8-carboxamide] | 119 nM |
| COc1cc(C#N)c2nccc(N3CCc4c(cc(Cn5ccnc5)cc4-c4cn(C)nc4C(F)(F)F)C3=O)c2c1 [Example 205] | < 20 nM |
| CCc1cc(C(=O)NC2CCCC2)c2nccc(N3CCc4c(cc(Cn5ccnc5)cc4-c4cn(C)nc4C(F)(F)F)C3=O)c2c1 [Example 164, 4-(7-((1H-Imidazol-1-yl)methyl)-5-(1-methyl-3-(trifluoromethyl)-1H-pyrazol-4-yl)-1-oxo-3,4-dihydroisoquinolin-2(1)-yl)-N-cyclopentyl-6-ethylquinoline-8-carboxamide] | 155 nM |
| CCc1cc(C(=O)NC)c2nc(C)cc(N3CCc4c(cc(Cn5ccnc5)cc4-c4cn(C)nc4C(F)(F)F)C3=O)c2c1 [Example 178] | < 20 nM |
| COc1cc(C(=O)O)c2nccc(N3CCc4c(cc(Cn5ccnc5)cc4-c4cn(C)nc4C(F)(F)F)C3=O)c2c1 [Example 40, 4-(7-((1H-Imidazol-1-yl)methyl)-5-(1-methyl-3-(trifluoromethyl)-1H-pyrazol-4-yl)-1-oxo-3,4-dihydroisoquinolin-2(1H)-yl)-6-methoxyquinoline-8-carboxylic acid] | 291 nM |
| CCc1cc(C(=O)NC2CCN(C)C2)c2nccc(N3CCc4c(cc(Cn5ccnc5)cc4-c4cn(C)nc4C(F)(F)F)C3=O)c2c1 (stereo not shown) [Example 193, 4-(7-((1H-Imidazol-1-yl)methyl)-5-(1-methyl-3-(trifluoromethyl)-1H-pyrazol-4-yl)-1-oxo-3,4-dihydroisoquinolin-2(1H)-yl)-6-ethyl-N-(1-methylpyrrolidin-3-yl)quinoline-8-carboxamide] | < 20 nM |
| CCc1cc(N2CCN(CCOC)CC2)c2nccc(N3CCc4c(cc(Cn5ccnc5)cc4-c4cn(C)nc4C(F)(F)F)C3=O)c2c1 [Example 210] | < 20 nM |
| CCc1cc(C(=O)NC2CN(C(C)=O)C2)c2nccc(N3CCc4c(cc(Cn5ccnc5)cc4-c4cn(C)nc4C(F)(F)F)C3=O)c2c1 [Example 241] | < 20 nM |
| COc1cc(-c2n[nH]c(=O)o2)c2nc(C)cc(N3CCc4c(cc(Cn5ccnc5)cc4-c4cn(C)nc4C(F)(F)F)C3=O)c2c1 [Example 180, 5-(4-(7-((1H-Imidazol-1-yl)methyl)-5-(1-methyl-3-(trifluoromethyl)-1H-pyrazol-4-yl)-1-oxo-3,4-dihydroisoquinolin-2(1H)-yl)-6-methoxy-2-methylquinolin-8-yl)-1,3,4-oxadiazol-2(3-1)-one] | 68 nM |
| COc1cc(N2CCN(C)CC2)c2nc(C)cc(N3CCc4c(cc(Cn5ccnc5)cc4-c4cn(C)nc4C(F)(F)F)C3=O)c2c1 [Example 102, 7-((1H-Imidazol-1-yl)methyl)-2-(6-methoxy-2-methyl-8-(4-methylpiperazin-1-yl)quinolin-4-yl)-5-(1-methyl-3-(trifluoromethyl)-1H-pyrazol-4-yl)-3,4-dihydroisoquinolin-1(2H)-one] | < 20 nM |
| COc1cc(C(=O)NC(C)C)c2nccc(N3CCc4c(cc(Cn5ccnc5)cc4-c4cn(C)nc4C(F)(F)F)C3=O)c2c1 [Example 47, 4-(7-((1H-Imidazol-1-yl)methyl)-5-(1-methyl-3-(trifluoromethyl)-1H-pyrazol-4-yl)-1-oxo-3,4-dihydroisoquinolin-2(1H)-yl)-N-isopropyl-6-methoxyquinoline-8-carboxamide] | 54 nM |
| CCc1cc(C(=O)NC2CN(C(=O)c3ccncc3)C2)c2nccc(N3CCc4c(cc(Cn5ccnc5)cc4-c4cn(C)nc4C(F)(F)F)C3=O)c2c1 [Example 225] | < 20 nM |
| COc1cc(C(N)=O)c2nc(C)cc(N3CCc4c(cc(Cn5ccnc5)cc4-c4cn(C)nc4C(F)(F)F)C3=O)c2c1 [Example 198, 4-(7-((1H-Imidazol-1-yl)methyl)-5-(1-methyl-3-(trifluoromethyl)-1H-pyrazol-4-yl)-1-oxo-3,4-dihydroisoquinolin-2(1H)-yl)-6-methoxy-2-methylquinoline-8-carboxamide] | < 20 nM |
| COc1cc(C2=CCN(C)CC2)c2nc(C)cc(N3CCc4c(cc(Cn5ccnc5)cc4-c4cn(C)nc4C(F)(F)F)C3=O)c2c1 [Example 154, 7-((1H-Imidazol-1-yl)methyl)-2(6-methoxy-2-methyl-8-(1-methyl-1,2,3,6-tetrahydropyridin-4-yl)quinolin-4-yl)-5-(1-methyl-3-(trifluoromethyl)-1H-pyrazol-4-yl)-3,4-dihydroisoquinolin-1(2H)-one] | 33 nM |
| CCc1cc(C(=O)NCC2CCCC2)c2nccc(N3CCc4c(cc(Cn5ccnc5)cc4-c4cn(C)nc4C(F)(F)F)C3=O)c2c1 [Example 170, 4-(7-((1H-Imidazol-1-yl)methyl)-5-(1-methyl-3-(trifluoromethyl)-1H-pyrazol-4-yl)-1-oxo-3,4-dihydroisoquinolin-2(1H)-yl)-N-(cyclopentylmethyl)-6-ethylquinoline-8-carboxamide] | 212 nM |
| COc1cc(N2CCN(C)C(=O)C2)c2nc(C)cc(N3CCc4c(cc(Cn5ccnc5)cc4-c4cn(C)nc4C(F)(F)F)C3=O)c2c1 [Example 105, 7-((1H-Imidazol-1-yl)methyl)-2-(6-methoxy-2-methyl-8-(4-methyl-3-oxopiperazin-1-yl)quinolin-4-yl)-5-(1-methyl-3-(trifluoromethyl)-1H-pyrazol-4-yl)-3,4-dihydroisoquinolin-1(2H)-one] | < 20 nM |
| CCc1cc(OC)c2nccc(N3CCc4c(cc(Cn5ccnc5)cc4-c4cccnc4C(F)(F)F)C3=O)c2c1 [Example 185, 7-((1H-Imidazol-1-yl)methyl)-2-(6-ethyl-8-methoxyquinolin-4-yl)-5-(2-(trifluoromethyl)pyridin-3-yl)-3,4-dihydroisoquinolin-1(2H)-one] | 55 nM |
| COc1cc(C(=O)NC2CN(C(C)=O)C2)c2nccc(N3CCc4c(cc(Cn5ccnc5)cc4-c4cn(C)nc4C(F)(F)F)C3=O)c2c1 [Example 226, 4-(7-((1H-Imidazol-1-yl)methyl)-5-(1-methyl-3-(trifluoromethyl)-1H-pyrazol-4-yl)-1-oxo-3,4-dihydroisoquinolin-2(1H)-yl)-N-(1-acetylazetidin-3-yl)-6-methoxyquinoline-8-carboxamide] | 43 nM |
| CCc1cc(N2CCN(C)C(=O)C2)c2nc(C)cc(N3CCc4c(cc(Cn5ccnc5)cc4-c4cn(C)nc4C(F)(F)F)C3=O)c2c1 [Example 111, 7-((1H-Imidazol-1-yl)methyl)-2-(6-ethyl-2-methyl-8-(4-methyl-3-oxopiperazin-1-yl)quinolin-4-yl)-5-(1-methyl-3-(trifluoromethyl)-1H-pyrazol-4-yl)-3,4-dihydroisoquinolin-1(2H)-one] | < 20 nM |
| COc1cc(C(=O)N(C)C)c2nccc(N3CCc4c(cc(Cn5ccnc5)cc4-c4cn(C)nc4C(F)(F)F)C3=O)c2c1 [Example 45, 4-(7-((1H-Imidazol-1-yl)methyl)-5-(1-methyl-3-(trifluoromethyl)-1H-pyrazol-4-yl)-1-oxo-3,4-dihydroisoquinolin-2(1H)-yl)-6-methoxy-N,N-dimethylquinoline-8-carboxamide] | 326 nM |
| CCc1cc(N2CCN(C3COC3)CC2)c2nccc(N3CCc4c(cc(Cn5ccnc5)cc4-c4cn(C)nc4C(F)(F)F)C3=O)c2c1 [Example 215, 7-((1H-Imidazol-1-yl)methyl)-2-(6-ethyl-8-(4-(oxetan-3-yl)piperazin-1-yl)quinolin-4-yl)-5-(1-methyl-3-(trifluoromethyl)-1H-pyrazol-4-yl)-3,4-dihydroisoquinolin-1(2H)-one] | < 20 nM |
| CCc1cc(C2CCN(C)CC2)c2nc(C)cc(N3CCc4c(cc(Cn5ccnc5)cc4-c4cn(C)nc4C(F)(F)F)C3=O)c2c1 [Example 148, 7-((1H-Imidazol-1-yl)methyl)-2-(6-ethyl-2-methyl-8-(1-methylpiperidin-4-yl)quinolin-4-yl)-5-(1-methyl-3-(trifluoromethyl)-1H-pyrazol-4-yl)-3,4-dihydroisoquinolin-1(2H)-one] | < 20 nM |
| COc1cc(C(N)=O)c2nccc(N3CCc4c(cc(Cn5ccnc5)cc4-c4cn(C)nc4C(F)(F)F)C3=O)c2c1 [Example 41, 4-(7-((1H-Imidazol-1-yl)methyl)-5-(1-methyl-3-(trifluoromethyl)-1H-pyrazol-4-yl)-1-oxo-3,4-dihydroisoquinolin-2(1H)-yl)-6-methoxyquinoline-8-carboxamide] | 24 nM |
